Laboratory results as given in patent publication US8063048B2, “Acetylenyl-pyrazolo-pyrimidine derivatives” (Hoffmann-La Roche Inc., priority 2005, dated 2011).

melting point [°C] | SMILES
172 to 174 | CC(CO)(CO)NS(=O)(=O)c1cccc(C#Cc2cnn3c(C(F)F)cc(-c4ccc(C(F)(F)F)cc4)nc23)c1 [Example 33, 3-[7-Difluoromethyl-5-(4-trifluoromethyl-phenyl)-pyrazolo[1,5-a]pyrimidin-3-ylethynyl]-N-(2-hydroxy-1-hydroxymethyl-1-methyl-ethyl)-benzene sulfonamide]
174 to 175 | Cc1ccc(C#Cc2cnn3c(C(F)(F)F)cc(-c4ccc(C(F)(F)F)cc4)nc23)cc1S(=O)(=O)NCCO [Example 34, N-(2-Hydroxy-ethyl)-2-methyl-5-[7-trifluoromethyl-5-(4-trifluoromethyl-phenyl)-pyrazolo[1,5-a]pyrimidin-3-ylethynyl]-benzenesulfonamide]
255 to 267 | Cc1ccc(C#Cc2cnn3c(C(F)(F)F)cc(-c4ccc(C(F)(F)F)cc4)nc23)cc1S(N)(=O)=O [Example 35, 2-Methyl-5-[7-trifluoromethyl-5-(4-trifluoromethyl-phenyl)-pyrazolo[1,5-a]pyrimidin-3-ylethynyl]-benzenesulfonamide]
266 to 267 | NS(=O)(=O)c1ccc(C#Cc2cnn3c(C(F)(F)F)cc(-c4ccc(C(F)(F)F)cc4)nc23)cc1 [Example 36, 4-[7-Trifluoromethyl-5-(4-trifluoromethyl-phenyl)-pyrazolo[1,5-a]pyrimidin-3-ylethynyl]-benzenesulfonamide]
> 288 | O=S(=O)(O)c1cncc(C#Cc2cnn3c(C(F)(F)F)cc(-c4ccc(C(F)(F)F)cc4)nc23)c1 [Example 37, 5-[7-Trifluoromethyl-5-(4-trifluoromethyl-phenyl)-pyrazolo[1,5-a]pyrimidin-3-ylethynyl]-pyridine-3-sulfonic acid]
241 to 242 | CS(=O)(=O)c1cncc(C#Cc2cnn3c(C(F)(F)F)cc(-c4ccc(C(F)(F)F)cc4)nc23)c1 [Example 38, 3-(5-Methanesulfonyl-pyridin-3-ylethynyl)-7-trifluoromethyl-5-(4-trifluoromethyl-phenyl)-pyrazolo[1,5-a]pyrimidine]
214 | CS(=O)(=O)c1cccc(C#Cc2cnn3c(C(F)(F)F)cc(-c4ccc(C(F)(F)F)cc4)nc23)c1 [Example 40, 3-(3-Methanesulfonyl-phenylethynyl)-7-trifluoromethyl-5-(4-trifluoromethyl-phenyl)-pyrazolo[1,5-a]pyrimidine]
209 to 211 | CCOc1cc(-c2cc(C(F)(F)F)n3ncc(C#Cc4cccc(S(=O)(=O)NC(C)(C)CO)c4)c3n2)ccc1C(F)(F)F [Example 41, 3-[5-(3-Ethoxy-4-trifluoromethyl-phenyl)-7-trifluoromethyl-pyrazolo[1,5-a]pyrimidin-3-ylethynyl]-N-(2-hydroxy-1,1-dimethyl-ethyl)-benzenesulfonamide]
246 to 247 | NS(=O)(=O)c1cccc(C#Cc2cnn3c(C(F)F)cc(-c4ccc(C(F)(F)F)cc4)nc23)c1 [Example 42, 3-[7-Difluoromethyl-5-(4-trifluoromethyl-phenyl)-pyrazolo[1,5-a]pyrimidin-3-ylethynyl]-benzenesulfonamide]
178 to 180 | COc1ccc(C#Cc2cnn3c(C(F)F)cc(-c4ccc(C(F)(F)F)cc4)nc23)cc1S(=O)(=O)NC(C)(C)CO [Example 43, 5-[7-Difluoromethyl-5-(4-trifluoromethyl-phenyl)-pyrazolo[1,5-a]pyrimidin-3-ylethynyl]-N-(2-hydroxy-1,1-dimethyl-ethyl)-2-methoxy-benzenesulfonamide]
175 | FC(F)(F)c1ccc(-c2cc(C(F)(F)F)n3ncc(C#Cc4cncnc4)c3n2)cc1 [Example 44, 3-Pyrimidin-5-ylethynyl-7-trifluoromethyl-5-(4-trifluoromethyl-phenyl)-pyrazolo[1,5-a]pyrimidine]
230 to 232 | NS(=O)(=O)c1ccc(C#Cc2cnn3c(C(F)(F)F)cc(-c4ccc(C(F)(F)F)cc4)nc23)c(F)c1 [Example 45, 3-Fluoro-4-[7-trifluoromethyl-5-(4-trifluoromethyl-phenyl)-pyrazolo[1,5-a]pyrimidin-3-ylethynyl]-benzenesulfonamide]
174 to 182 | N#CCCNS(=O)(=O)c1cccc(C#Cc2cnn3c(C(F)(F)F)cc(-c4ccc(C(F)(F)F)cc4)nc23)c1 [Example 47, N-(2-Cyano-ethyl)-3-[7-trifluoromethyl-5-(4-trifluoromethyl-phenyl)-pyrazolo[1,5-a]pyrimidin-3-ylethynyl]-benzenesulfonamide]
230 to 232 | NS(=O)(=O)c1ccc(C#Cc2cnn3c(C(F)F)cc(-c4ccc(C(F)(F)F)cc4)nc23)c(F)c1 [Example 48, 4-[7-Difluoromethyl-5-(4-trifluoromethyl-phenyl)-pyrazolo[1,5-a]pyrimidin-3-ylethynyl]-3-fluoro-benzenesulfonamide]
254 | NS(=O)(=O)c1ccc(C#Cc2cnn3c(C(F)F)cc(-c4ccc(C(F)(F)F)cc4)nc23)cc1 [Example 49, 4-[7-Difluoromethyl-5-(4-trifluoromethyl-phenyl)-pyrazolo[1,5-a]pyrimidin-3-ylethynyl]-benzenesulfonamide]
254 to 255 | NS(=O)(=O)c1cc(C#Cc2cnn3c(C(F)(F)F)cc(-c4ccc(C(F)(F)F)cc4)nc23)ccc1F [Example 50, 2-Fluoro-5-[7-trifluoromethyl-5-(4-trifluoromethyl-phenyl)-pyrazolo[1,5-a]pyrimidin-3-ylethynyl]-benzenesulfonamide]
209 to 211 | CCOc1cc(-c2cc(C(F)(F)F)n3ncc(C#Cc4ncc(S(=O)(=O)NC(C)(C)CO)s4)c3n2)ccc1C(F)(F)F [Example 51, 2-[5-(3-Ethoxy-4-trifluoromethyl-phenyl)-7-trifluoromethyl-pyrazolo[1,5-a]pyrimidin-3-ylethynyl]-thiazole-5-sulfonic acid (2-hydroxy-1,1-dimethyl-ethyl)-amide]
175 to 178 | CC(O)c1ccc(C#Cc2cnn3c(C(F)(F)F)cc(-c4ccc(C(F)(F)F)cc4)nc23)cc1 (stereo not drawn) [Example 52, 1-{4-[7-Trifluoromethyl-5-(4-trifluoromethyl-phenyl)-pyrazolo[1,5-a]pyrimidin-3-ylethynyl]-phenyl}-ethanol]
216 to 218 | Cc1nc(C#Cc2cnn3c(C(F)(F)F)cc(-c4ccc(C(F)(F)F)cc4)nc23)sc1S(=O)(=O)NC(C)(C)CO [Example 53, 4-Methyl-2-[7-trifluoromethyl-5-(4-trifluoromethyl-phenyl)-pyrazolo[1,5-a]pyrimidin-3-ylethynyl]-thiazole-5-sulfonic acid (2-hydroxy-1,1-dimethyl-ethyl)-amide]
245 to 246 | Cc1nc(C#Cc2cnn3c(C(F)(F)F)cc(-c4ccc(C(F)(F)F)cc4)nc23)sc1S(N)(=O)=O [Example 54, 4-Methyl-2-[7-trifluoromethyl-5-(4-trifluoromethyl-phenyl)-pyrazolo[1,5-a]pyrimidin-3-ylethynyl]-thiazole-5-sulfonic acid amide]
166 to 168 | COc1ccc(C#Cc2cnn3c(C(F)(F)F)cc(-c4ccc(C(F)(F)F)cc4)nc23)cn1 [Example 56, 3-(6-Methoxy-pyridin-3-ylethynyl)-7-trifluoromethyl-5-(4-trifluoromethyl-phenyl)-pyrazolo[1,5-a]pyrimidine]
